Reference: US20140315975A1, “APOPTOSIS-INDUCING AGENT” (NITTO DENKO CORPORATION, priority 2011, published 2014)

Key:
Format in all cases: cell-based
M7609 cells [1] = experiment: Apoptosis induction by TUNEL staining
Procedure: A TUNEL method was carried out as follows using an In Situ Cell Death Detection Kit, POD (Roche). GST-π knockdown cells obtained by the procedure of Example 1 (2) were plated on a cover slip placed in a 35 mm plastic tissue culture dish so as to give 1×10^5 cells/2 mL. After the medium was aspirated, 4% paraformaldehyde in PBS was added, and incubation was carried out at room temperature for 60 min., thus fixing the cells. In order to carry out blocking of endogenous peroxidase, incubation was carried out with 3% H2O2 in methanol at room temperature for 10 min. Subsequently, permeabilization of cells was carried out by treating with 0.1% Triton X-100 in 0.1% sodium citrate on ice for 2 min. The TUNEL reaction was carried out in a humidity chamber at 37° C. for 60 min. Detection of TUNEL-positive cells was carried out by a coloration reaction using a DAB substrate after reacting a peroxidase labeled anti-fluorescein antibody at 37° C. for 30 min. Counter staining was carried out using hematoxylin, stained cells were examined under an optical microscope, and TUNEL-positive cells were evaluated as apoptotic cells. Washing between the operations was carried out by rinsing with PBS.

M7609 cells [2] = experiment: Autophagy induction by LC3 immunofluorescence staining; settings: 1 to 4 days after transfection (FIG. 10)
Procedure: Induction of autophagy by GST-π knockdown was analyzed by immunofluorescence staining with LC3, which is an autophagy-specific marker protein. GST-π knockdown cells obtained by the procedure of Example 1 (2) were plated on a cover slip placed in a 35 mm plastic tissue culture dish so as to give 1×10^5 cells/2 mL. After the medium was aspirated, 4% paraformaldehyde in PBS was added, and incubation was carried out at room temperature for 10 min., thus fixing the cells. Permeabilization of the cells was carried out using 0.5% Triton X-100 in PBS on ice for 5 min. After washing with cold PBS for 10 min., a reaction with anti-LC3B antibody (Invitrogen) diluted with 1% BSA containing PBS was carried out within a humidity chamber at 37° C. for 1 hour. A secondary antibody reaction was carried out using Alexa Fluor488-labeled rabbit antibody (Invitrogen) at 37° C. for 1 hour. Mounting on a slide glass was carried out using Prolong Gold antifade reagent with DAPI, and incubation was carried out at 4° C. for 16 hours. Washing after the antibody reaction was carried out three times using PBS at 37° C. for 5 min. Autophagy-positive cells at the time of examination with a fluorescence microscope were defined as cells having a spot-like LC3 signal present in the cytoplasm.

Raf-1 = experiment: Immunoprecipitation of Raf-1 and anti-ubiquitin western blot; settings: M7609 cells
Procedure: In the same way as for Example 1 (3), on the 2nd day after siRNA transfection culturing was carried out for 16 hours in a serum-free medium, and a cell extract was collected. The cell extract thus obtained was subjected to quantitative protein analysis using a Micro BCA Protein Assay Kit (Scramble siRNA: 8.88 μg/μL, GST-π siRNA: […]). 0.5 μg of the cell extract was mixed with anti-Raf-1 antibody conjugated to Dynabeads Protein G (Invitrogen), incubation was carried out at 4° C. for 2 hours while gently mixing in a shaker to thus isolate Raf-1 protein, and then a western blot analysis was carried out in the same way as for Example 1 (3) using an anti-ubiquitin antibody (Santa Cruz). Phosphorylation modification of Ser621, which is involved in inhibition of Raf-1 proteasome degradation, was investigated in the same manner using an anti-p-Raf-1 (Ser621) antibody (MILLIPORE).

[3] = test system: RAS/Raf/MAPK signal cascade; experiment: Western blot of protein involved in RAS/Raf/MAPK signal cascade; settings: M7609 cells
Procedure: A western blot analysis for the main protein involved in the RAS/Raf/MAPK signal cascade was carried out in the same way as for (3) above using cells harvested on the 2nd day after transfection with GST-π siRNA. As antibodies, in addition to anti-GST-π antibody, anti-p-Raf-1 (Ser338) antibody (MILLIPORE), anti-Raf-1 antibody (Santa Cruz), anti-p-MEK1/2 (Ser217/221) antibody (Cell Signaling), anti-MEK1/2 antibody (Cell Signaling), anti-p-ERK1/2 (Thr202/Tyr204) antibody (Cell Signaling), anti-ERK antibody (Cell Signaling), and anti-GAPDH antibody (Abcam) were used.

GST-π siRNA: GST-π siRNA (SEQ ID No: 1: GGGAGGCAAGACCUUCAUUTT, siRNA ID#2385, Ambion) (chemistry not given here)
proportion of apoptosis-positive cells (TUNEL-positive per 1000 cells) (M7609 cells [1]; 1 to 4 days after transfection (FIG. 10)): gradually but continuously increased up to 4th day | TUNEL-positive cells (apoptosis) (M7609 cells [1]; 3rd to 5th day after transfection, stained images (FIG. 9)): TUNEL-positive cells, that is, apoptosis, was observed | proportion of autophagy-positive cells (spot-like LC3 signal per 500 cells) (M7609 cells [2]): increased rapidly after treatment, peaked on 2nd day, and then decreased | ubiquitination of Raf-1 (Raf-1; 2nd day after transfection, compared with Scramble siRNA (FIG. 3)): enhanced | expression of Raf protein and Ser621 phosphorylated Raf protein (p-Raf-1 (S621)) (Raf-1; Raf-1 immunoprecipitate (FIG. 3)): decreased slightly | expression level of Raf protein ([3]; 2nd day after transfection (FIG. 2)): decreases | phosphorylation of proteins involved in the RAS/Raf/MAPK signal cascade ([3]; 2nd day after transfection, compared with Scramble siRNA (FIG. 2)): decreased
